Laboratory results taken from US7956074B2, “Aryl-isoxazolo-4-yl-oxadiazole derivatives” (Hoffman-La Roche Inc., priority 2005, dated 2011).

Target: T1, GABA A receptor α5β3γ2 (Homo sapiens, UniProt P18507+P31644)
T1 construct: expressed in transfected cells; host or cells: HEK293 cells, transiently transfected; membranes prepared
Assay: [3H]flumazenil competition binding, human GABA A α5β3γ2
Settings: competition for [3H]flumazenil (0.5 nM) binding, HEK293 cells expressing human (transiently transfected) α5β3γ2; means of two determinations; read-out: Ki[nM] hα5
Description: Membrane Preparation and Binding Assay
The affinity of compounds at GABA A receptor subtypes was measured by competition for [3H]flumazenil (85 Ci/mmol; Roche) binding to HEK293 cells expressing rat (stably transfected) or human (transiently transfected) receptors of composition
Cell pellets were suspended in Krebs-tris buffer (4.8 mM KCl, 1.2 mM CaCl2, 1.2 mM MgCl2, 120 mM NaCl, 15 mM Tris; pH 7.5; binding assay buffer), homogenized by polytron for ca. 20 sec on ice and centrifuged for 60 min at 4° C. (50000 g; Sorvall, rotor: SM24=20000 rpm). The cell pellets were resuspended in Krebs-tris buffer and homogenized by polytron for ca. 15 sec on ice. Protein was measured (Bradford method, Bio-Rad) and aliquots of 1 mL were prepared and stored at −80° C.
Assays were incubated to equilibrium for 1 hour at 4° C. and harvested onto GF/C uni-filters (Packard) by filtration using a Packard harvester and washing with ice-cold wash buffer (50 mM Tris; pH 7.5). After drying, filter-retained radioactivity was detected by liquid scintillation counting. Ki values were calculated using Excel-Fit (Microsoft) and are the means of two determinations.

Ki [nM]	Compound
31.7	COc1ccc(-c2nnc(-c3c(-c4ccccc4)noc3C)o2)c(OC)c1 [Example 10, 2-(2,4-Dimethoxy-phenyl)-5-(5-methyl-3-phenyl-isoxazol-4-yl)-[1,3,4]oxadiazole]
115	Cc1onc(-c2ccccc2)c1-c1nnc(-c2cccs2)o1 [Example 121, 2-(5-Methyl-3-phenyl-isoxazol-4-yl)-5-thiophen-2-yl-[1,3,4]oxadiazole]
293	COc1cc(F)ccc1-c1nnc(-c2c(-c3ccccc3)noc2CO)o1 [Example 92, {4-[5-(4-Fluoro-2-methoxy-phenyl)-[1,3,4]oxadiazol-2-yl]-3-phenyl-isoxazol-5-yl}-methanol]
31.1	COc1ccc(-c2nnc(-c3c(-c4ccccc4)noc3C)o2)cc1 [Example 5, 2-(4-Methoxy-phenyl)-5-(5-methyl-3-phenyl-isoxazol-4-yl)-[1,3,4]oxadiazole]
22.1	Cc1onc(-c2ccccc2)c1-c1nnc(-c2ccc3[nH]cnc3c2)o1 [Example 27, 5-[5-(5-Methyl-3-phenyl-isoxazol-4-yl)-[1,3,4]oxadiazol-2-yl]-1H-benzoimidazole]
469	Cc1onc(-c2ccccc2)c1-c1nnc(-c2ccc(C(=O)N3CCOCC3)cc2)o1 [Example 80, {4-[5-(5-Methyl-3-phenyl-isoxazol-4-yl)-[1,3,4]oxadiazol-2-yl]-phenyl}-morpholin-4-yl-methanone]
13.4	COc1cc(N2CCNCC2)ccc1-c1nnc(-c2c(-c3ccccc3)noc2C)o1 [Example 66, 1-{3-Methoxy-4-[5-(5-methyl-3-phenyl-isoxazol-4-yl)-[1,3,4]oxadiazol-2-yl]-phenyl}-piperazine]
100	Cc1onc(-c2ccccc2)c1-c1nnc(-c2cccc(F)c2)o1 [Example 45, 2-(3-Fluoro-phenyl)-5-(5-methyl-3-phenyl-isoxazol-4-yl)-[1,3,4]oxadiazole]
15.3	COc1cc(N2CCOCC2)ccc1-c1nnc(-c2c(-c3ccccc3)noc2-c2ccccc2)o1 [Example 96, 4-{4-[5-(3,5-Diphenyl-isoxazol-4-yl)-[1,3,4]oxadiazol-2-yl]-3-methoxy-phenyl}-morpholine]
7.7	COc1cc(NC(=O)C2CC2)ccc1-c1nnc(-c2c(-c3ccccc3)noc2C)o1 [Example 16, Cyclopropanecarboxylic acid {3-methoxy-4-[5-(5-methyl-3-phenyl-isoxazol-4-yl)-[1,3,4]oxadiazol-2-yl]-phenyl}-amide]
31.2	Cc1onc(-c2ccccc2)c1-c1nnc(-c2ccc(N3CCC(F)(F)CC3)cc2)o1 [Example 112, 4,4-Difluoro-1-{4-[5-(5-methyl-3-phenyl-isoxazol-4-yl)-[1,3,4]oxadiazol-2-yl]-phenyl}-piperidine]
30.7	Cc1onc(-c2ccccc2)c1-c1nnc(-c2ccc(-n3ccnc3C)cc2)o1 [Example 59, 2-[4-(2-Methyl-imidazol-1-yl)-phenyl]-5-(5-methyl-3-phenyl-isoxazol-4-yl)-[1,3,4]oxadiazole]
96	CCc1onc(-c2ccccc2)c1-c1nnc(-c2ccc(F)cc2OC)o1 [Example 60, 2-(5-Ethyl-3-phenyl-isoxazol-4-yl)-5-(4-fluoro-2-methoxy-phenyl)-[1,3,4]oxadiazole]
134	Cc1onc(-c2ccccc2)c1-c1nnc(-c2ccc3[nH]ccc3c2)o1 [Example 74, 5-[5-(5-Methyl-3-phenyl-isoxazol-4-yl)-[1,3,4]oxadiazol-2-yl]-1H-indole]
27.1	COc1cc(N2CCOCC2)ccc1-c1nnc(-c2c(-c3ccccc3)noc2Cl)o1 [Example 105, 4-{4-[5-(5-Chloro-3-phenyl-isoxazol-4-yl)-[1,3,4]oxadiazol-2-yl]-3-methoxy-phenyl}-morpholine]

Compound	Ki [nM]
N-Cyclopropylmethyl-4-[5-(5-methyl-3-phenyl-isoxazol-4-yl)-[1,3,4]oxadiazol-2-yl]-benzamide [Example 79]	235
